The molecules below were run on HT-29 cells (assay: HT-29 cell necrosis/necroptosis inhibition (TNF-α + SMAC mimetic + zVAD-FMK; CellTiter-Glo cell viability)). Details: Homo sapiens, HT-29, 20 h, read-out: EC50 (Cell activity; Necrosis/Necroptosis Inhibitory Activity, Compounds 143-323).
Format: cell-based
Method: Compounds 1-319 (denoted as Compound Nos. 1 through 319 in Table 3 and 4) of the disclosure were tested for binding and cellular RIP1 inhibitory activity following the experimental procedures described below.
• Cell line: HT-29 (ATCC® HTB-38™) • Culture medium: McCOY's 5A, Gibco, Cat No. 16600-082 • FBS, Gibco, Cat No. 10099-141C • Trypsin: Gibco, Cat No. 25200-056 • DMSO: Sigma, Cat No. 67-68-5, 1L • Assay plate: Corning #3903 • Compound dilution plate: Corning #3357 • Inducers: TNFα, GenScript, Cat No. Z01001-50, • SmacM, Cat. No., HY-15989, MedChemExpress (MCE) • Z_VAD FMK, TargetMol, T6013 • Cell Titer-Glo® Luminescent Cell Viability Assay Kit: Promega, Cat No. G7573 • EnVision: PerkinElmer, 2105-0010 Methods Cell Seeding
1. HT-29 cells were checked every day to make sure that they were healthy and growing as expected. They were subjected to sub-culturing when they were approximately 80% confluent.
2. The culture medium, McCOY's 5A medium (Gibco, Cat No. 16600-082) with 10% fetal bovine serum or FBS (Gibco, Cat No. 10099-141C), was pre-warmed in a 37° C. water bath for at least 30 min.
3. When the cells had reached a desired level of confluency of 80% in a T75 flask, the medium was aspirated, and the cells were washed with warm phosphate buffered saline or PBS two times.
4. 2-3 ml fresh warm trypsin (Gibco, Cat No. 25200-056) solution was added to the washed cells. The flask with the cells was transferred to a 37° C. incubator.
5. After 5 minutes, the side of the flask was tapped, and the flask was examined under a microscope for detachment of the cells to the flask. If necessary, the cells were kept in the incubator for an additional 5-10 minutes, with occasional tapping, until lifting was complete.
6. The trypsin reaction was neutralized by transferring 6-9 ml cell culture medium to sterile 15 ml conical tubes, and by centrifuging the cell culture at 300×g for 7 minutes to pellet the cells (supernatant decanted).
7. The cells were resuspended in fresh cell culture medium and the cell counting was performed using a hemocytometer.
8. 100 μl of the resuspended cell culture medium containing ˜5,000 cells were transferred into each well of the sterile 96-well cell culture plate (Corning 3903) and cultured overnight at 37° C. with 5% CO2.
Compound Titration and Treatment
1. All test compounds were dissolved in DMSO (Dimethyl sulfoxide) to create a 20 mM stock.
2. 3 μl of each compound 20 mM stock was mixed with 27 μl DMSO, and the compound solution was further diluted at a titration ratio of 1:3 (20 μl compound solution+40 μl DMSO) till the 10 points end.
3. All culture medium was removed from assay plates filled with HT-29 cell cultures. The cells were then washed with 1 PBS, and resuspended in fresh, FBS-free McCOY's 5A medium containing a cocktail of TNF-α (10 ng/ml), a SMAC mimetic compound (6 μM) and Z-VAD-fluoromethylketone or zVAD-FMK (10 μM) to stimulate the HT-29 cells to increase RIP1 kinase levels and necroptosis.
4. 0.5 μL of the diluted compound solution was added to the corresponding 96-well assay plates.
5. The assay plates were incubated for 20 hours at 37° C. with 5% CO2.
1. The CellTiter-Glo® Luminescent Cell Viability Assay was employed to detect the ATP levels of viable HT-29 cells.
2. The CellTiter-Glo® buffer and the lyophilized substrate were equilibrated to room temperature prior to use.
3. The CellTiter-Glo® substrate was resuspended with CellTiter-Glo® buffer, then mixed by gently vortexing to obtain a homogeneous solution.
4. 20 μl the enzyme/substrate mixture was transferred by multi-channel pipetting into 96-well assay plates.
5. The assay plates were placed on an orbital shaker and the contents were shaken for 3 minutes to induce cell lysis.
6. The assay plates were incubated at room temperature for 10 minutes to stabilize the luminescent signal.
7. The luminescence signals were read and recorded with EnVision.
8. The geometric mean EC50 values were calculated from 10 points response dose with duplicates. In

| Structure (SMILES) | EC50 |
| --- | --- |
| Cc1nc(C(=O)N2CCC2)nn1-c1nc(N2CCN(C(=O)N3N=CC[C@H]3c3cc(F)cc(C#N)c3)CC2)ncc1F [Compound 247, (S)-3-(1-(4-(4-(3-(azetidine-1-carbonyl)-5-methyl-1H-1,2,4-triazol-1-yl)-5-fluoropyrimidin-2-yl)piperazine-1-carbonyl)-4,5-dihydro-1H-pyrazol-5-yl)-5-fluorobenzonitrile] | 0.1 to 100 nM |

Same assay, conditions: Homo sapiens; HT-29 cells, TNF-α 10 ng/ml + SMAC mimetic 6 μM + zVAD-FMK 10 μM, 20 hours; geometric mean, 10 points in duplicate; read-out: EC50 (Cell activity; Necrosis/Necroptosis Inhibitory Activity, Compounds 1-142)

| Structure (SMILES) | EC50 |
| --- | --- |
| NC(=O)c1cnn(-c2ccnc(N3CCN(C(=O)N4N=CC[C@H]4c4cccc(F)c4)CC3)n2)c1 [Compound 17, (S)-1-(2-(4-(5-(3-fluorophenyl)-4,5-dihydro-1H-pyrazole-1-carbonyl)piperazin-1-yl)pyrimidin-4-yl)-1H-pyrazole-4-carboxamide] | 0.1 to 100 nM |
| N#Cc1cc(F)cc([C@@H]2CC=NN2C(=O)N2CCN(c3nccc(-c4cc[nH]n4)n3)CC2)c1 [Compound 34, (5)-3-(1-(4-(4-(1H-pyrazol-3-yl)pyrimidin-2-yl)piperazine-1-carbonyl)-4,5-dihydro-1H-pyrazol-5-yl)-5-fluorobenzonitrile] | 0.1 to 100 nM |
| Cc1nn(CC2CCOC2)c(C)c1-c1nc(N2CCN(C(=O)N3N=CC[C@H]3c3cc(F)cc(C#N)c3)CC2)ncc1F (stereo partly drawn) [Compound 132, 3-((5S)-1-(4-(4-(3,5-dimethyl-1-((tetrahydrofuran-3-yl)methyl)-1H-pyrazol-4-yl)-5-fluoropyrimidin-2-yl)piperazine-1-carbonyl)-4,5-dihydro-1H-pyrazol-5-yl)-5-fluorobenzonitrile] | 0.1 to 100 nM |
| Cc1[nH]nc(CO)c1-c1nc(N2CCN(C(=O)N3N=CC[C@H]3c3cc(F)cc(C#N)c3)CC2)ncc1F [Compound 74, (S)-3-fluoro-5-(1-(4-(5-fluoro-4-(3-(hydroxymethyl)-5-methyl-1H-pyrazol-4-yl)pyrimidin-2-yl)piperazine-1-carbonyl)-4,5-dihydro-1H-pyrazol-5-yl)benzonitrile] | 0.1 to 100 nM |
| Cc1nn(CC(N)=O)nc1-c1nc(N2CCN(C(=O)N3N=CC[C@H]3c3cc(F)cc(F)c3)CC2)ncc1F [Compound 32, (S)-2-(4-(2-(4-(5-(3,5-difluorophenyl)-4,5-dihydro-1H-pyrazole-1-carbonyl)piperazin-1-yl)-5-fluoropyrimidin-4-yl)-5-methyl-2H-1,2,3-triazol-2-yl)acetamide] | 0.1 to 100 nM |
| N#Cc1cc(F)cc([C@@H]2CC=NN2C(=O)N2CCN(c3ncc(F)c(-n4cc(C#N)cn4)n3)CC2)c1 [Compound 127, (S)-1-(2-(4-(5-(3-cyano-5-fluorophenyl)-4,5-dihydro-1H-pyrazole-1-carbonyl)piperazin-1-yl)-5-fluoropyrimidin-4-yl)-1H-pyrazole-4-carbonitrile] | 0.1 to 100 nM |
| Cn1ncc(Cl)c1-c1nc(N2CCN(C(=O)N3N=CC[C@H]3c3cc(F)cc(C#N)c3)CC2)ncc1F [Compound 15, (5)-3-(1-(4-(4-(4-chloro-1-methyl-1H-pyrazol-5-yl)-5-fluoropyrimidin-2-yl)piperazine-1-carbonyl)-4,5-dihydro-1H-pyrazol-5-yl)-5-fluorobenzonitrile] | 0.1 to 100 nM |

Same assay, conditions: Homo sapiens; HT-29 cells, TNF-α 10 ng/ml + SMAC mimetic 6 μM + zVAD-FMK 10 μM, 20 hours; geometric mean, 10 points in duplicate; read-out: EC50 (Cell activity; Necrosis/Necroptosis Inhibitory Activity, Compounds 143-323)

| Structure (SMILES) | EC50 |
| --- | --- |
| Cc1nc(CF)nn1-c1nc(N2CCN(C(=O)N3N=CC[C@H]3c3cc(F)cc(C#N)c3)CC2)ncc1F [Compound 246] | 0.1 to 100 nM |
| Cc1c(N)nn(C)c1-c1nc(N2CCN(C(=O)N3N=CC[C@H]3c3cc(F)cc(F)c3)CC2)ncc1F [Compound 155, (S)-(4-(4-(3-amino-1,4-dimethyl-1H-pyrazol-5-yl)-5-fluoropyrimidinyl)piperazin-1-yl)(5-(3,5-difluorophenyl)-4,5-dihydro-1H-pyrazol-1-yl)methanone] | 0.1 to 100 nM |
| Cc1ncc(C2CC=NN2C(=O)N2CCN(c3nc(-c4c(C)cnn4C)ncc3F)CC2)s1 (centres unmarked) [Compound 162, (4-(2-(1,4-dimethyl-1H-pyrazol-5-yl)-5-fluoropyrimidin-4-yl)piperazin-1-yl)(5-(2-methylthiazol-5-yl)-4,5-dihydro-1H-pyrazol-1-yl)methanone] | 0.1 to 100 nM |
| Cc1nc(C2CC=NN2C(=O)N2CCN(c3ncc(F)c(-c4nnc(C)s4)n3)CC2)co1 (centres unmarked) [Compound 209, (4-(5-fluoro-4-(5-methyl-1,3,4-thiadiazol-2-yl)pyrimidin-2-yl)piperazin-1-yl)(5-(2-methyloxazol-4-yl)-4,5-dihydro-1H-pyrazol-1-yl)methanone] | 100 to 1000 nM |
| Cc1cnn(C)c1-c1ncc(F)c(N2CCN(C(=O)N3N=CCC3c3cscn3)CC2)n1 (centres unmarked) [Compound 160, (4-(2-(1,4-dimethyl-1H-pyrazol-5-yl)-5-fluoropyrimidin-4-yl)piperazin-1-yl)(5-(thiazol-4-yl)-4,5-dihydro-1H-pyrazol-1-yl)methanone] | 0.1 to 100 nM |
| Cc1nc(C(N)=O)nn1-c1nc(N2CCN(C(=O)N3N=CC[C@H]3c3cc(F)cc(F)c3)CC2)ncc1F [Compound 252, (S)-1-(2-(4-(5-(3,5-difluorophenyl)-4,5-dihydro-1H-pyrazole-1-carbonyl)piperazin-1-yl)-5-fluoropyrimidin-4-yl)-5-methyl-1H-1,2,4-triazole-3-carboxamide] | 0.1 to 100 nM |
| Cc1ncc(C2CC=NN2C(=O)N2CCN(c3cc(-c4c(C)cnn4C)ncc3F)CC2)s1 (centres unmarked) [Compound 292, (4-(2-(1,4-dimethyl-1H-pyrazol-5-yl)-5-fluoropyridin-4-yl)piperazin-1-yl)(5-(2-methylthiazol-5-yl)-4,5-dihydro-1H-pyrazol-1-yl)methanone] | 100 to 1000 nM |
| Cc1cnn(C)c1-c1cc(N2CCN(C(=O)N3N=CCC3c3nccs3)CC2)c(F)cn1 (centres unmarked) [Compound 294, (4-(2-(1,4-dimethyl-1H-pyrazol-5-yl)-5-fluoropyridin-4-yl)piperazin-1-yl)(5-(thiazol-2-yl)-4,5-dihydro-1H-pyrazol-1-yl)methanone] | 100 to 1000 nM |
| Cn1cnc(-c2ccc(F)c(N3CCN(C(=O)N4N=CC[C@H]4c4cc(F)cc(C#N)c4)CC3)n2)n1 [Compound 177, (S)-3-fluoro-5-(1-(4-(3-fluoro-6-(1-methyl-1H-1,2,4-triazol-3-yl)pyridin-2-yl)piperazine-1-carbonyl)-4,5-dihydro-1H-pyrazol-5-yl)benzonitrile] | 100 to 1000 nM |
| Cc1nnc(-c2nc(N3CCN(C(=O)N4N=CC[C@H]4c4cncc(F)c4)CC3)ccc2F)s1 [Compound 173, (S)-(4-(5-fluoro-6-(5-methyl-1,3,4-thiadiazol-2-yl)pyridin-2-yl)piperazin-1-yl)(5-(5-fluoropyridin-3-yl)-4,5-dihydro-1H-pyrazol-1-yl)methanone] | 0.1 to 100 nM |
| Cc1cnc([C@@H]2CC=NN2C(=O)N2CCN(c3ncc(F)c(-c4nc(C#N)nn4C)n3)CC2)s1 [Compound 151, (S)-5-(5-fluoro-2-(4-(5-(5-methylthiazol-2-yl)-4,5-dihydro-1H-pyrazole-1-carbonyl)piperazin-1-yl)pyrimidin-4-yl)-1-methyl-1H-1,2,4-triazole-3-carbonitrile] | 0.1 to 100 nM |
| Cc1cnn(C)c1-c1ncc(F)c(N2CCN(C(=O)N3N=CC[C@H]3c3cc(F)cc(C#N)c3)CC2)n1 [Compound 268, (S)-3-(1-(4-(2-(1,4-dimethyl-1H-pyrazol-5-yl)-5-fluoropyrimidin-4-yl)piperazine-1-carbonyl)-4,5-dihydro-1H-pyrazol-5-yl)-5-fluorobenzonitrile] | 0.1 to 100 nM |
